# Source: patent publication US9730448B2, “Tetrazolinone compound and use of same” (Sumitomo Chemical Company, Limited, priority 2013, dated 2017)
# Tested on: cucumber powdery mildew fungus (Sphaerotheca fuliginea, a QoI-resistant strain, cytochrome b position 143 glycine to alanine)
# Test: Test Example 6 and Comparative Test Example: control of cucumber powdery mildew (QoI-resistant strain), foliar spray on cucumber
# Type: in vivo
# Conditions: 500 ppm water dilution sprayed on cucumber (SAGAMI HANJIRO); inoculated after air-drying; investigated after 8 days in greenhouse
smiles,measurement,value
"Cc1cc(-c2cccs2)ccc1OCc1ccccc1-n1nnn(C)c1=O [1-{[2-[2-methyl-4-(thiophen-2-yl)phenoxy]methyl]phenyl}-4-methyl-1,4-dihydrotetrazol-5-one]",area of lesion spots on the treated plant relative to that on an untreated plant,≥ 70%
